Measured values published in the pKa sets of Baltruschat and Czodrowski (2020).

details: acidic group

Row | Compound | pKa
1 | CC(C)(C(N)=O)S(N)(=O)=O | 9.92
2 | CC(=O)c1ccc(O)c2ncccc12 | 7.75
3 | N#CC(Cc1ccccc1)C(=O)O (configuration not stated) | 2.24
4 | Nc1nc(N)c2[nH]c(N)nc2n1 | 10.8
5 | O/N=C\C=C\c1ccccc1 | 10.9
6 | Cc1ccc(O)c(CN(C)C)c1 | 11.2
7 | Oc1ccc(/C=N/c2ncc3nc[nH]c3n2)cc1 | 8.62
8 | O=C(O)c1c(Cl)cccc1[N+](=O)[O-] | 1.41
9 | COc1ccc([Se]O)c([N+](=O)[O-])c1 | 10.7
10 | O=Cc1c(O)cccc1Cl | 8.26
11 | C[NH2+]CCCNC(=O)/C=N/O | 8.61
12 | CCCCCCCCCC[NH2+]CCC(=O)O | 3.57
13 | Cc1c(O)n[nH]c1-c1ccccc1 | 7.6
14 | CC(=O)N1CS(=O)C[C@H]1C(=O)O (some centres not stated) | 2.5
15 | Oc1ccc(I)cc1 | 9.32
16 | Cc1ccc([Se](=O)O)cc1 | 4.88
17 | CCCCN(C(=O)c1cccc(O)c1)c1ccc(/N=N/c2ccc3c(c2)OCCOCCOCCOCCOCCO3)cc1 | 9.54
18 | NNC(=O)C(F)F | 9.66
19 | [NH3+][C@@H](Cn1cccn1)C(=O)O | 2.2
20 | O=C(c1ccccc1)N(O)c1ccccc1 | 7.87
21 | CC(c1ccccc1)[N+](=O)[O-] (configuration not stated) | 7.39
22 | CC(C)=C(C(N)=O)C(=O)O | 3.95
23 | O=S(=O)(Nc1cccc(C(F)(F)F)c1)C(F)(F)F | 3.5
24 | CC(C)C[C@H]([NH3+])C(=O)O | 2.54

Row | Compound | pKa
25 | N#CC(C#N)=C(C#N)NC1CCCCC1 | 6.01
26 | CC1(C)CC(=O)C(Br)C(=O)C1 | 3.1
27 | [NH3+]C(CC(=O)[O-])C(=O)NC(CC(=O)O)C(=O)[O-] (configuration not stated) | 4.7
28 | Oc1ccccc1Br | 8.4
29 | N#Cc1ccc(O)c(O)c1 | 7.72
30 | C=CCC1(C2C=CCCC2)C(=O)NC(=S)NC1=O (configuration not stated) | 7.25
31 | CC[NH+]1CCC[C@@H]1CNC(=O)c1c(O)c(Br)cc(Br)c1OC | 5.88
32 | NC(=O)c1cccnc1 | 13.5
33 | O=C(O)c1ccc[nH+]c1 | 2.03
34 | COCc1ccc(C(=O)O)cc1 | 4.18
35 | Nn1cnnc1S | 7.47
36 | CN(C)C(=O)OCC(=O)O | 3.01
37 | COc1cc(OC)c2c(c1Cl)O[C@]1(C(=O)CC(=O)C[C@@H]1C)C2=O | 4.49
38 | CC(C)CCC1=C(O)C(=O)c2ccccc2C1=O | 5.13
39 | Oc1ccc2c(c1)CCC2 | 10.3
40 | COc1cc(C(=O)O)ccc1C | 4.13
41 | Cc1cc(C)c(C(C(=O)O)c2ccccc2)c(C)c1 (configuration not stated) | 4
42 | CN(C)C(=O)/C=C(\O)c1ccncc1 | 7.32
43 | O=C(O)[C@@H]1C[C@@H]1Br | 4.09
44 | OCCS | 9.47
45 | O=c1cc(-c2cccc(O)c2)oc2ccccc12 | 9.75
46 | Nc1nc2cccc[n+]2o1 | 7.18
47 | CCCCc1c(-c2ccccc2)nn(-c2ccccc2)c1O | 7.2
48 | O=N/C(=N/O)c1ccccc1 | 4.9

Row | Compound | pKa
49 | O=[N+]([O-])c1n[nH]c(-n2cncn2)n1 | 2
50 | C/C=C/C1=C(O)C(=O)c2ccccc2C1=O | 4.78
51 | C/C(=C\C=C\C(C)C(=O)O)[C@H]1C[NH2+][C@H](C(=O)[O-])[C@H]1CC(=O)[O-] (some centres not stated) | 4.93
52 | NC(=O)CCCCCCCCC(=O)NO | 9.49
53 | N#Cc1ccc(O[C@H]2O[C@@H](C(=O)O)[C@H](O)[C@@H](O)[C@@H]2O)cc1 | 3.22
54 | Cc1ccccc1O | 10.2
55 | c1ccc(CCNc2ncnc3[nH]ncc23)cc1 | 4.38
56 | NC(=O)C(CCCCC(=O)O)c1ccccc1 (configuration not stated) | 4.79
57 | CC(=O)N1CCc2noc(O)c2CC1 | 4.3
58 | O=C1CSCC(=O)C1 | 4.34
59 | NC(=O)c1ccccc1O | 8.61
60 | Oc1ccc2nc3ccccc3cc2c1 | 8.81
61 | O=C(O)C(=O)Cc1ccccc1 | 2.68
62 | Cn1nc([N+](=O)[O-])nc1NN=O | 3.22
63 | O=C(O)C[Se]c1ccccc1 | 3.75
64 | Cc1cc(CO)c(O)c(CO)c1 | 9.92
65 | Nc1ncnc2cn[nH]c12 | 10.2
66 | C[n+]1c2ccccc2cc2c(N)cccc21 | 10
67 | Oc1[nH+]cnc2ccccc12 | 2.12
68 | NNC(=O)CS | 8.05
69 | O=C(O)c1coc2ccccc12 | 4.18
70 | CC(C(=O)O)C(C#N)c1ccccc1 (configuration not stated) | 3.7
71 | Cn1cnc(C(=O)O)c1C(=O)O | -0.56

same assay, conditions: basic group

Row | Compound | pKa
72 | CC(C)n1c(N)nc2ccc(/C(=C\C(N)=O)c3cccc(F)c3F)cc21 | 6.7
73 | CC(C)N1CCCC1 | 11.2
74 | Clc1ccc2[nH]cnc2c1 | 4.86
75 | Cc1cc(C)[nH+]c([S-])n1 | 2.8
76 | CC(C)S(=O)(=O)n1c(N)nc2ccc(/C(=C/C(N)=O)c3cc(F)ccc3F)cc21 | 3.4
77 | CC(=O)c1ccc(O)c2ncccc12 | 4
78 | CC(C)NCCc1ccc([O-])cc1 | 10.8
79 | CCOc1ccc2[nH]c(CC(C)C)nc2c1 | 6.07
80 | c1cc(N2CCCCC2)ccc1N1CCCCC1 | 6.5
81 | CNCC(C)C[NH2+]C | 8.29
82 | Nc1nc(N)c2[nH]c(N)nc2n1 | 6.23
83 | NC1=[NH+][C@H]2C[C@@H](N1)N[C@@H]2C(=O)[O-] | 5.5
84 | CN(C)c1cc[n+](C)c([O-])n1 | 4.2
85 | Cc1nc2cccc([N+](=O)[O-])c2c(NCCC[NH+](C)C)c1C | 6.64
86 | CNC(N)=O | 0.8
87 | CC(C)(C)C1=CC(=C2C=CC=CC=C2)C=C(C(C)(C)C)C1=O | 4.48
88 | CN(C)c1ccc(/N=N/c2cccc[nH+]2)cc1 | 2
89 | CCCCN1CCCC1 | 10.4
90 | Cc1ccc(O)c(CN(C)C)c1 | 8.68
91 | CCOc1ccc(Nc2ccccc2)cc1 | 1.41
92 | Oc1ccc(/C=N/c2ncc3nc[nH]c3n2)cc1 | 3.27
93 | CC(C)C=O | 15.7

Row | Compound | pKa
94 | Cc1cc([O-])nc([O-])[n+]1C | 10.1
95 | CC(O)CN(C)CCO (configuration not stated) | 8.69
96 | [O-]c1ncnc2ccccc12 | 9.81
97 | Cc1ncnc2c1NCCN2 | 6.74
98 | CCNCC(=O)[O-] | 10.2
99 | [NH3+]CCCCc1ccccn1 | 5.56
100 | FC(F)(F)c1cc(-c2ccccc2)nnc1NCC[NH+]1CCOCC1 | 1.44
101 | C1CNCCNCCNC1 | 11.7
102 | Cc1ccc(NC(=O)CN2CCCCC2)cc1 | 7.85
103 | C/C(CN(C)C)=N\[O-] | 10.9
104 | NC1(C(=O)[O-])CCCC1 | 10.1
105 | C1CNCCSCC[NH2+]C1 | 3.23
106 | O=C(c1ccccc1)N(O)c1ccccc1 | -2.08
107 | COc1cnccn1 | 0.75
108 | NCc1ccccc1O | 8.89
109 | CCN(C(C)C)C(C)C | 11.4
110 | Cc1cc(Cn2[nH+]c(C)cc2C)n[nH]1 | 1.2
111 | CCN(CC)CC[NH+](CC)CC | 6.18
112 | [O-]c1ccnc[nH+]1 | 1.77
113 | CCNC(N)=O | 1.19
114 | CC1CCCC(C)(C)N1C (configuration not stated) | 10.8
115 | CCNN(CC)CC | 7.08

Row | Compound | pKa
116 | CNC(C)Cc1ccc(OC)c(OC)c1 (configuration not stated) | 9.8
117 | CC[NH+](CC)CCCNc1ccnc2ccccc12 | 8.65
118 | NC(=O)c1cccnc1 | 3.32
119 | COCc1ccccc1CN(C)C | 9.19
120 | O=C(O)c1ccc[nH+]c1 | -2.4
121 | Nc1ccc(Cc2ccc([NH3+])cc2)cc1 | 4
122 | CCCCCCCCCCCCCCCCCCNCCCCCCCCCCCCCCCCCC | 11
123 | CCCSC(=N)c1ccccc1 | 8.1
124 | C#CC(C)(C)NC(C)(C)CC | 9
125 | CC[C@@H]1C(=O)OC[C@@H]1Cc1cncn1C | 6.99
126 | N/C(C/C(N)=N/O)=N\O | 4.77
127 | CCCCCCCCCCCCN(CC(C)O)CC(C)O (configuration not stated) | 7.8
128 | CC(C(O)c1ccccc1)N(C)C (configuration not stated) | 9.3
129 | NCCCCOc1c2ccccc2cc2ccccc12 | 9.94
130 | Cc1ccc(-c2cnc(-c3ccccc3)o2)cc1 | 0.91
131 | CC(N)CC#N (configuration not stated) | 7.85
132 | CC(C)CNC(C)C | 10.6
133 | CNC | 11
134 | CC(C)C[C@H]([NH3+])C(=O)N[C@@H](Cc1c[nH]cn1)C(=O)[O-] | 6.69
135 | O=C(CCN1CCOCC1)c1ccccc1 | 6.5
136 | CCc1ccnnc1C | 4.03
137 | NCC(O)CN | 9.64

Row | Compound | pKa
138 | Cc1n[nH]c2c(NCc3ccccc3)ncnc12 | 4.95
139 | CCC(=O)OCCN(C)C | 8.29
140 | CCC(CO)NCl (configuration not stated) | 1.55
141 | N=C(N)Nc1nc(N)nc(NC(=N)N)n1 | 9.8
142 | CN(C)/C=N/c1ccc(Br)cc1 | 8.1
143 | CCCc1ccnc2c1ccc1cccnc12 | 5.45
144 | Nc1ccc2c(c1O)Cc1ccccc1-2 | 4.82
145 | C/N=C(\C)SC | 7.71
146 | C[NH+]1CCCC1c1ccc(Cl)nc1 (configuration not stated) | -1.3
147 | CCOC(=O)CCCN | 9.71
148 | OCCC[C@H]1CC[C@@H]2CCCN12 | 11.2
149 | Cc1nc2ccccc2nc1[O-] | 9.88
150 | Oc1ccc2nc3ccccc3cc2c1 | 5.52
151 | Nc1ccc2c(c1)Cc1cccc(O)c1-2 | 4.73
152 | Nc1nnc(-c2ccccc2)s1 | 2.9
153 | CCNN(C)CC | 6.81
154 | Cc1nc(C)c(C)nc1C | 3.36
155 | Cc1ccc(N=C2C=CC(=N)C=C2)c(N)c1 | 4.2
156 | NNC(=O)C[NH3+] | 2.38
157 | O=C([O-])[C@@H]1O[C@H](Oc2cccc3cccnc23)[C@@H](O)[C@H](O)[C@H]1O | 4.62
158 | COCCN(C)C | 8.96
159 | Cn1cc/c(=N\N)c2ccccc21 | 10.6

Row | Compound | pKa
160 | CN1CC[C@]23c4c5ccc(O[C@@H]6O[C@H](C(=O)[O-])[C@@H](O)[C@H](O)[C@H]6O)c4O[C@H]2[C@@H](O)C=C[C@H]3[C@H]1C5 | 8.1
161 | Nc1ncnc2cn[nH]c12 | 5
162 | NCCSCCN | 9.64
163 | Cc1cc(N)c(C)cn1 | 9.68
164 | COCCNc1ccccc1 | 4.05
165 | C(=C/c1nnnn1-c1ccccc1)/c1ccccc1 | -2.81
166 | Cn1c(=O)c2c(ncn2CC(=O)[O-])n(C)c1=O | 4.48
167 | CCC(=O)C(CC(C)N(C)C)(c1ccccc1)c1ccccc1 (configuration not stated) | 8.62
168 | CN/C=N/c1cccc(-c2csc(N=C(N)N)n2)c1 | 8.29
169 | CC(C=C(c1cccs1)c1cccs1)N1CCCCC1 (configuration not stated) | 8.46
170 | C=CCOc1nc(N)nc(N)n1 | 3.43
171 | O=P([O-])([O-])C(NCc1ccncc1)c1ccccc1[O-] (configuration not stated) | 12.2
172 | CN1CCC[NH+](C)Cc2ccccc2OCCOc2ccccc2C1 | 7.92
173 | [O-]c1ccnc([S-])[nH+]1 | 7.75
174 | N=C1CCCC1 | 8.95
175 | CCCC(=O)C(CCN1CCOCC1)(c1ccccc1)c1ccccc1 | 7.17
176 | CCCCCCCCCCCCCCN(CCO)CC(C)O (configuration not stated) | 6.3
177 | Cc1ccc(NCO)cc1 | 3.42
